Laboratory results published in article PMC10447463, “Data-mining unveils structure–property–activity correlation of viral infectivity enhancing self-assembling peptides” (Nature Communications, 2023).
Read-outs that look alike come from different tables or passages of the source.

Key:
[1] = format: physicochemical; settings: for ThT Cat. / ThT-Fluorescence (categorical): ThT-active if fluorescence at least twice the control
How it was run: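 Preformed peptide fibrils (1 mg/mL) mixed with 50 µM ThT in PBS, 15 min at RT, fluorescence ex 440/em 488 nm versus PBS blank, triplicates. Zeta potential: peptides at 1 mg/mL in PBS pH 7.4, aged 1 d at RT, diluted in 1 mM KCl, Smoluchowski from electrophoretic mobility.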

[2] = β-sheet content by ATR-FT-IR; format: physicochemical; settings: for b -sheet / %: Fig. S7 panel A, β-sheet content by ATR-FT-IR
How it was run: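 In the conversion assay, unconverted peptide passing a 3 kDa membrane at 4 °C was labelled with fluorescamine alongside unfiltered PNF, both in DMSO, and read at 365/470 nm after 20 min at room temperature. β-sheet content relied on ATR FT-IR of lyophilized fibril powder.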

[3] = Turbidity, derived count rate of scattered light; format: physicochemical; settings: for Count Rate: derived count rate of scattered light (turbidity); for Log10 Count Rate: turbidity, derived count rate of scattered light, data of Figure 2D
[4] = ThT fluorescence category, 1 if Rel. ThT >2

| Substance | Tht category (> 2 to blank = +) ([1]; Fig S10 panel D) | ThT Cat, ([1]; ThT category, 1 if Rel. ThT >2) | ThT Cat. [1, 4] | ThT Cat. / ThT-Fluorescence (categorical) [1] | b -sheet / % [2] | Count Rate [3] | Log10 Count Rate [3] | ThT Cat. ([1]; Fig S10 panel E) | ThT Cat. ([1]; ThT category, 1 if Rel. ThT >2) | Tht category (> 2 to blank = +) ([1]; FigS12 panel A) | ThT Cat, ([1]; FigS12 panel B) | Rel. ThT ([1]; n-fold ThT fluorescence vs control (PBS, 10% DMSO), 4 µL 1 mg/mL fibrils + 20 µL 50 µM ThT, 15 min RT, ex 440 / em 488 nm, triplicate) | ß-sheet / % ([2]; ATR-FT-IR of lyophilised 1 mg/mL PNF solution, peak integral ratio 1625-1635 cm-1, measured once) |
| --- | --- | --- | --- | --- | --- | --- | --- | --- | --- | --- | --- | --- | --- |
| KIKIQINMAQ | 0 (ThT-inactive (N-Fold <2)) | 0 (ThT-inactive (N-Fold <2)) | 0 (ThT-inactive (N-Fold <2)) | 0 (ThT-inactive (N-Fold <2)) | 45.78% | 5859 | 3.768 |  |  |  |  |  |  |
| RGECKFKFQF | 1 (ThT. Cat is 1, if Rel. ThT >2) | 1 (ThT. Cat is 1, if Rel. ThT >2) |  | 1 (ThT. Cat is 1, if Rel. ThT >2) | 46.18% | 219.3 | 2.341 | 1 (ThT. Cat is 1, if Rel. ThT >2) | 1 (ThT. Cat is 1, if Rel. ThT >2) |  |  |  |  |
| CKYKYQY | 1 (ThT. Cat is 1, if Rel. ThT >2) | 1 (ThT. Cat is 1, if Rel. ThT >2) | 1 (ThT. Cat is 1, if Rel. ThT >2) | 1 (ThT. Cat is 1, if Rel. ThT >2) | 49.12% | 1061 | 3.026 |  |  | 1 (ThT. Cat is 1, if Rel. ThT >2) | 1 (ThT. Cat is 1, if Rel. ThT >2) |  |  |
| KVKVKVQV | 1 (ThT. Cat is 1, if Rel. ThT >2) | 1 (ThT. Cat is 1, if Rel. ThT >2) |  | 1 (ThT. Cat is 1, if Rel. ThT >2) | 43.06% | 94.37 | 1.975 |  | 1 (ThT. Cat is 1, if Rel. ThT >2) | 1 (ThT. Cat is 1, if Rel. ThT >2) | 1 (ThT. Cat is 1, if Rel. ThT >2) |  |  |
| KAKAQANMWQ | 0 (ThT-inactive (N-Fold <2)) | 0 (ThT-inactive (N-Fold <2)) |  | 0 (ThT-inactive (N-Fold <2)) | 42.81% | 56.17 | 1.749 | 0 (ThT-inactive (N-Fold <2)) | 0 (ThT-inactive (N-Fold <2)) | 0 (ThT-inactive (N-Fold <2)) | 0 (ThT-inactive (N-Fold <2)) | 1 | 43% |
| CKFKFQF | 1 (ThT. Cat is 1, if Rel. ThT >2) | 1 (ThT. Cat is 1, if Rel. ThT >2) |  | 1 (ThT. Cat is 1, if Rel. ThT >2) | 47.43% | 5303 | 3.725 | 1 (ThT. Cat is 1, if Rel. ThT >2) | 1 (ThT. Cat is 1, if Rel. ThT >2) |  |  |  |  |
| RGEKIKIQINM | 1 (ThT. Cat is 1, if Rel. ThT >2) | 1 (ThT. Cat is 1, if Rel. ThT >2) |  | 1 (ThT. Cat is 1, if Rel. ThT >2) | 38.16% | 594.6 | 2.774 | 1 (ThT. Cat is 1, if Rel. ThT >2) | 1 (ThT. Cat is 1, if Rel. ThT >2) |  |  |  |  |
